Data from patent publication US4028399A, “Carbamate” (priority 1969, dated 1977).

System: houseflies
Assay type: in vivo, common houseflies
Conditions: 1 mm^3 acetonic solution to ventral abdomen under CO2 narcosis; kill rate after 4 hours
Protocol: ADMINISTRATION TEST WITH COMMON HOUSEFLIES
1 mm^3 of the acetonic solution of the active ingredients is administered to the ventral abdomen of houseflies under CO2 narcosis. The kill rate on the insects thus treated is determined after 4 hours, from which the mortality curve is calculated.

| SMILES | LD50 |
| --- | --- |
| CCc1cc(CC)cc(OC(=O)NC)c1 [3,5-diethyl-phenyl-N-methylcarbamate] | 0.12 /fly |
| CNC(=O)Oc1cc(C)cc(C(C)C)c1 [Comparative substance II, 3-isopropyl-5-methyl-N-methylcarbamate] | 0.26 /fly |
| CNC(=O)Oc1cc(C)c(C)cc1Cl [Comparative substance III, 3,4-dimethyl-6-chloro-N-methylcarbamate] | 10.0 /fly |
